Converted amounts (≈) assume the structure as drawn. “Also recorded” adds a separate entry of the source. Read-outs that look alike come from different tables or passages of the source. Ends that are not written are not given here. Peptide text beside a SMILES is read from it.
Assays:
[1] = system: Candida albicans W01 strain; test: microbe, parasite or virus in culture; format: cell-based; conditions: read-out: MFC, minimal fungicidal concentration against C. albicans
Text: The following pathogenic bacterial strains were used: The Gram-positive Enterococcus faecalis (ATCC 29212), Staphylococcus aureus (HNCMO112011), Listeria monocytogenes (ATCC 19111) and the Gram-negative Pseudomonas aeruginosa (ATCC 27853), Escherichia coli (ATCC 8739), Salmonella enterica (ATCC 13076), Klebsiella pneumoniae (NCTC 13440), Acinetobacter baumannii (ATCC 17978) obtained from the ATCC (United States) and NCTC (National Collection of Type Cultures–England). For the antifungal experiment the Candida albicans W01 strain ([Ördögh et al., 2014]) was used. Antimicrobial activities of peptides against ∼10^7 log phase bacteria were tested in Potassium-Phosphate Buffer (PPB, pH 7.4) as described by [Jenei et al. (2020)] while anti-Candida assays were done according to [Szerencsés et al. (2021)]. The two-fold dilution series of peptides ranged from 25 μM to 0.125 μM, while that of the antibiotics ampicillin (Merck) and miconazole (Duchefa Biochemie) from […] to 0.1 μM. The lowest concentration of the antimicrobial agents, which completely eliminated viable bacteria or C. albicans were considered as the minimal bactericidal concentration (MBC) and minimal fungicidal concentration (MFC).

[2] = system: Acinetobacter baumannii (ATCC 17978); test: microbe, parasite or virus in culture; format: cell-based; conditions: for MBC: read-out: MBC, minimal bactericidal concentration against A. baumannii
In short: (§1)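 Peptides were serially diluted two-fold from 25 µM to 0.8 µM and incubated 3 h with roughly 10^7 log-phase cells in potassium-phosphate buffer at pH 7.4; complete killing of viable bacteria defined the minimal bactericidal concentration.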

[3] = system: A. baumannii; test: Scanning electron microscopy of cell morphology; format: cell-based, Acinetobacter baumannii; conditions: 30 min treatment, peptide 1.6 or 3.125 µM as in Figure 3 legend
Method: (§2) A. baumannii and C. albicans were grown and treated the same way as for the membrane permeability assay. Cells were then fixed with 2.5% (v/v) glutaraldehyde in phosphate buffered saline (PBS, pH 7.4). 5 μl of the above bacterial and yeast suspensions were spotted on a silicon disk coated with 0.01% Poly-L-Lysine. The filters were washed twice with PBS and gradually dehydrated with ethanol series (30, 50, 70, 80%, and three times 100% ethanol, each for minimum 30 min). The samples were dried with a critical point dryer (K850: Quorum Technologies Ltd.), followed by 12 nm gold coating and observed under a JEOL JSM-7100F/LV scanning electron microscope.
FIGURE 3 Viability, membrane permeability and morphology of A. baumannii cells after NCR treatment (A–L) SYTO9/PI staining observed with confocal microscope, (M–X) Cell morphology observed with SEM. (A,M) untreated control, (B,N) CaNCR13, 3.125 µM, (C,O) CaNCR63, 3.125 µM, (D,P) CaNCR63_1-20, 3.125 µM, (E,Q) CaNCR63_15-34, 3.125 µM, (F,R) MsNCR443, 3.125 µM, (G,S) MsNCR463_16-35, 1.6 µM, (H,T) MsNCR463_17-30, 3.125 µM, (I,U) PsNCR349, 1.6 µM, (J,V) PsNCR349_26-50, 3.125 µM, (K,W) PsNCR349_31-50, 3.125 µM, (L,X) PsNCR352, 1.6 µM.

[4] = system: Lambda DNA/HindIII marker; test: Gel retardation assay (DNA aggregation); format: binding; conditions: 100 ng DNA, 5 or 10 µM peptide in water, 30 min at room temperature, 1% agarose gel
Method: Interactions of peptides with DNA was visualized with gel retardation assay ([Hsu et al., 2005]). 100 ng Lambda DNA/HindIII marker (ThermoFisher Scientific) was incubated with 0, 5 or 10 µM synthetic NCRs or NCR derivatives in water for 30 min at room temperature and then loaded into 1% agarose gel. Electrophoresis of DNA fragments separated the mobile HindIII-digested DNA fragments while the aggregated DNA remained in the loading wells.
FIGURE 6 Aggregation of DNA by NCR peptides. Lambda HindIII digested DNA was incubated without (0) or with NCR peptides at 5 or 10 μM concentration.

[5] = system: C. albicans; test: Scanning electron microscopy of cell morphology; format: cell-based, Candida albicans; conditions: 30 min treatment, peptide 1.6, 3.125 or 25 µM as in Figure 4 legend
Method: as §2

[6] = system: Listeria monocytogenes (ATCC 19111); format: cell-based; conditions: ATCC 19111, 3 h
In short: as §1

[7] = system: Escherichia coli (ATCC 8739); format: cell-based; conditions: ATCC 8739, 3 h
In short: as §1

[8] = system: Pseudomonas aeruginosa (ATCC 27853); format: cell-based; conditions: ATCC 27853, 3 h
In short: as §1

[9] = system: Staphylococcus aureus (HNCMO112011); format: cell-based; conditions: HNCMO112011, 3 h
In short: as §1

[10] = system: Klebsiella pneumoniae (NCTC 13440); format: cell-based; conditions: NCTC 13440, 3 h
In short: as §1

[11] = system: Salmonella enterica (ATCC 13076); format: cell-based; conditions: ATCC 13076, 3 h
In short: as §1

[12] = system: E. coli, S. enteritidis, P. aeruginosa, L. monocytogenes, S. aureus, E. faecalis, K. pneumoniae and A. baumannii; test: Antimicrobial activity assay, spectrum over the eight tested pathogenic bacteria; format: cell-based; conditions: 3 h treatment of ~10^7 log phase bacteria, peptides 25 to 0.8 µM; active = MBC ≤25 µM
In short: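 MBC taken as the lowest peptide concentration leaving no viable bacteria after 3 h exposure of ~10^7 log-phase cells. Peptides tested by 2-fold serial dilution, 25 µM down to 0.8 µM, in PPB (pH 7.4). Gram-positive and Gram-negative reference strains from ATCC, NCTC and HNCMO collections.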

[13] = system: Enterococcus faecalis (ATCC 29212); format: cell-based
In short: as §1

[14] = peptides carrying a StrepII tag at their C-terminus, 25 µM, 10% Fetal Bovine Serum, 37°C, 18 h; StrepTactin-HRP Western blot
Method: Peptides were incubated in 10% Fetal Bovine Serum at 37°C for 18 h. Full length NCRs were used at 25 μM, while short derivatives at 50 μM. The serum proteins and peptides were separated by sodium dodecyl sulfate-polyacrylamide gel electrophoresis (SDS-PAGE, 12% bis-tris gel, MES buffer pH 7.3) and visualized by Coomassie blue staining. NCRs with StrepII tag at their C-terminus were also detected by Western blot analysis using Precision Protein StrepTactin-HRP conjugate antibody (BioRad) and Clarity Western ECL (BioRad) for chemiluminescence detection according to the supplier.
FIGURE S3 Serum stability assay. Full length NCRs, StrepII-tagged NCR peptides (25 µM) and shorter NCR derivatives (50 µM) were incubated in water or in 10% Fetal Bovine Serum (FBS) for 18 hours at 37°C. Serum proteins and the peptides were separated by SDS-Page and visualized by Coomassie blue staining or in the case of StrepII-tagged NCRs also with Western blot. […]

[15] = ~10^7 log phase bacteria, Potassium-Phosphate Buffer pH 7.4, 3 h treatment, two-fold dilution series, lowest concentration completely eliminating viable bacteria
[16] = C. albicans W01, two-fold dilution series, lowest concentration completely eliminating viable C. albicans

| Compound | MFC ([1]; W01 strain) [µM] | MBC ([2]; ATCC 17978, 3 h, pH 7.4) [µM] | Morphology of A. baumannii cells by SEM [3] | Aggregation of HindIII-digested λ DNA (DNA retained in loading wells) [4] | Morphology of C. albicans cells by SEM [5] | MBC Listeria monocytogenes [6] [µM] | MBC Escherichia coli [7] [µM] | MBC Pseudomonas aeruginosa [8] [µM] | MBC Staphylococcus aureus [9] [µM] | MBC Klebsiella pneumoniae [10] [µM] | MBC Salmonella enterica [11] [µM] | Antibacterial spectrum over the eight tested bacterial strains [12] | MBC Acinetobacter baumannii ([2]; ATCC 17978, 3 h) [µM] | MBC [2, 15] [µM] | MFC [1, 16] [µM] | Ability to kill E. faecalis ([13]; 3 h, ~10^7 log phase bacteria, peptides ≤25 µM) | MBC Enterococcus faecalis ([13]; ATCC 29212, 3 h) [µM] | Stability in serum by Western blot [14] |
| --- | --- | --- | --- | --- | --- | --- | --- | --- | --- | --- | --- | --- | --- | --- | --- | --- | --- | --- |
| CC[C@H](C)[C@H](NC(=O)[C@H](CCCCN)NC(=O)[C@H](CO)NC(=O)[C@H](CCCNC(=N)N)NC(=O)[C@@H]1CCCN1C(=O)[C@H](CS)NC(=O)[C@H](CCCNC(=N)N)NC(=O)[C@H](Cc1ccc(O)cc1)NC(=O)[C@H](CCCCN)NC(=O)[C@H](CCCCN)NC(=O)[C@H](CS)NC(=O)[C@H](CC(=O)O)NC(=O)[C@@H](NC(=O)[C@H](CCCNC(=N)N)NC(=O)[C@@H](NC(=O)[C@H](CCCCN)NC(=O)[C@H](CS)NC(=O)[C@@H](NC(=O)[C@H](CCSC)NC(=O)[C@@H](N)CCCCN)[C@@H](C)CC)[C@@H](C)O)C(C)C)C(N)=O [CaNCR63_1-20] (H-KMICKTRVDCKKYRCPRSKI-NH2; N-terminus assumed) | 25 (≈ 61.4 µg/mL) | 6.25 (≈ 15.4 µg/mL) | rough cell surface, lysis and flattening of the cells | less efficient than either the full-length peptide or the C-terminal CaNCR63_15-34 | most similar to the control | – | – | – | – | – | – | – | – | – | – | – | – | – |
| CC[C@H](C)[C@H](NC(=O)[C@H](CS)NC(=O)[C@H](CCCCN)NC(=O)[C@@H](NC(=O)[C@@H](NC(=O)[C@H](Cc1ccccc1)NC(=O)[C@H](CCCCN)NC(=O)[C@H](CO)NC(=O)[C@H](CO)NC(=O)[C@@H](NC(=O)[C@H](CC(C)C)NC(=O)[C@H](CCCCN)NC(=O)[C@@H]1CCCN1C(=O)[C@H](CS)NC(=O)[C@H](CC(=O)O)NC(=O)[C@H](C)NC(=O)[C@@H](NC(=O)[C@@H](NC(=O)[C@H](CCCNC(=N)N)NC(=O)[C@H](CS)NC(=O)[C@H](CCC(=O)O)NC(=O)[C@@H](NC(=O)[C@H](CO)NC(=O)[C@@H](N)CCC(=O)O)[C@@H](C)CC)[C@@H](C)O)C(C)C)[C@@H](C)CC)C(C)C)[C@@H](C)CC)C(=O)N[C@@H](CCCCN)C(=O)N[C@@H](CCCCN)C(=O)N[C@@H](CCCNC(=N)N)C(=O)N[C@@H](CS)C(=O)N[C@H](C(=O)N[C@@H](C)C(=O)N[C@@H](CCC(N)=O)C(=O)N[C@@H](Cc1ccccc1)C(=O)N[C@@H](Cc1ccccc1)C(=O)N[C@@H](CCCCN)C(=O)O)C(C)C [MsNCR443] (H-ESIECRTVADCPKLISSKFVIKCIKKRCVAQFFK-OH; N-terminus assumed) | 6.25 (≈ 24.5 µg/mL) | – | Filament-like structures | did not | aggregation of shrunken cells in a spider net like matrix | 12.5 (≈ 49 µg/mL) | 1.6 (≈ 6.27 µg/mL) | 6.25 (≈ 24.5 µg/mL) | 12.5 (≈ 49 µg/mL) | 12.5 (≈ 49 µg/mL) | 25 (≈ 98 µg/mL) | broad-spectrum activity | 1.6 (≈ 6.27 µg/mL) | 6.25 (≈ 24.5 µg/mL) | – | – | – | – |
| CC(C)[C@H](NC(=O)CNC(=O)[C@H](CCCNC(=N)N)NC(=O)[C@H](CCCCN)NC(=O)[C@@H]1CCCN1C(=O)[C@H](CCCCN)NC(=O)[C@@H](N)CS)C(=O)N[C@@H](CC(N)=O)C(=O)N[C@@H](Cc1ccccc1)C(=O)N[C@@H](CCCNC(=N)N)C(=O)N[C@@H](CS)C(=O)N[C@@H](CCCNC(=N)N)C(=O)N[C@@H](CCCCN)C(=O)NCC(=O)N[C@@H](CCCCN)C(=O)N[C@@H](CS)C(=O)N[C@@H](Cc1ccccc1)C(=O)N1CCC[C@H]1C(=O)N[C@H](C(=O)N[C@@H](CCCNC(=N)N)C(N)=O)C(C)C [MsNCR463_16-35] (H-CKPKRGVNFRCRKGKCFPVR-NH2; N-terminus assumed) | 3.125 (≈ 7.43 µg/mL) | – | budding of vesicles; also recorded: Filament-like structures | DNA remained in the wells | Flattening of cells | – | – | – | – | – | – | – | – | 1.6 (≈ 3.81 µg/mL) | 3.1 (≈ 7.37 µg/mL) | – | – | – |
| ITISNSSFGRIVYWNCKTDKDCKQHRGFNFRCRSGNCIPIRR-OH (cysteines drawn unpaired) [NCR183] | – | – | – | – | – | 6.25 | 6.25 | 6.25 | – | – | 25 | effective against five or four strains | – | – | – | able to kill | 25 | stable in the presence of FBS |
| YNLKYCTNDKDCPTMMCFPPDVSKCVWKTCYCVQKHKKKLKKKKKLTFNM-OH (cysteines drawn unpaired) [PsNCR349] | – | – | Only dead cells were visible | DNA remained in the wells | Flattening of cells | – | – | – | – | – | – | broad-spectrum activity | – | – | 3.125 | – | – | – |

— paper PMC9218685, “Legume Plant Peptides as Sources of Novel Antimicrobial Molecules Against Human Pathogens” (Frontiers in Molecular Biosciences, 2022)
